In series [1] the target is T1, recombinant human-MT1 receptor (Homo sapiens, UniProt P48039).
T1 construct: expressed in transfected cells; host or cells: unnamed cell line stably overexpressing human MT1, co-expressing mitochondrial apoaequorin and Gα16
Description: In vitro MT1 screening, agonist activity (AequoScreen aequorin luminescence). Type of series: cell-based. The note with it: percentage of activity relative to the reference agonist at the EC100 concentration; for activation at 0.001 µM: read-out: Agonism percentages of MT1, 1 nM; for activation at 0.1 µM: read-out: Agonism percentages of MT1, 100 nM. The text has this:
To proceed with compound screening over MT1 receptor, a cell line characterised by a stable overexpression of recombinant human-MT1 receptor was used. This line co-expresses mitochondrial apoaequorin and subunit Gα16.
Subunit Gα16 belongs to […], in which intracelular signal transduction is produced via phospholipase (PLC). Activation of PLC produces an increment of inositol-triphosphate levels and intracellular calcium levels. This increment in calcium levels is, therefore, independent and full compatible with the signal transduction of MT1 receptor.
After binding to calcium, aequorin carries out the oxidation of colenterazine to colenteramide, a luminescent reaction.
Assay protocol for agonist screening consists in an overnight incubation of cells and colenterazine, being performed by an AequoScreen™ system instrument, PerkinElmer, USA. After that this mixture was injected over a plate that contains the solution of the compounds to screen and luminescence was immediately read. Only in case of antagonism screening, after 15-30 min of the first injection the reference agonist was added in the same well, and then luminescence was measured.
Agonist activity was calculated as percentage of activity relative to the reference agonist at the EC100 concentration. Activity of antagonists was expressed as the inhibition percentage over the activity of reference agonist at its EC80, concentration.

For series [2] the following is noted: therapeutic use in humans; cited from earlier work.

T1 sequence (P48039 whole entry): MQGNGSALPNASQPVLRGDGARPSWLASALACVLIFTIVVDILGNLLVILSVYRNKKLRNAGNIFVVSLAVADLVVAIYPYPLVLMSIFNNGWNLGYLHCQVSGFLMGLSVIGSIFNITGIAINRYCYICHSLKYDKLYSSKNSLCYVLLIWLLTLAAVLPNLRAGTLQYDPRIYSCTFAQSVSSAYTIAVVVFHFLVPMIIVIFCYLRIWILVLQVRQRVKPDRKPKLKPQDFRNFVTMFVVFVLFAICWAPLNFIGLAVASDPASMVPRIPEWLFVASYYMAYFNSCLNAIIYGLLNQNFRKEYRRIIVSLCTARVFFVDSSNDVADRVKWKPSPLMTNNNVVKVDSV

On to `CC1Cc2c(c(F)cc3[nH]cc(CCNC(=O)C(C)C)c23)O1` (centres unmarked) [Compound 26, N-[2-(4-Fluoro-2-methyl-1,6-dihydro-2H-3-oxa-6-aza-as-indacen-8-yl)-ethyl]-isobutyramide], for which the activation at 0.001 µM in series [1] (1 nM compound) came to 25.7%. Also, the activation at 0.1 µM in series [1] (100 nM compound) came to 84.8%.

For the molecule `CC1Cc2c(c(F)cc3[nH]cc(CCNC(=O)C4CC4)c23)O1` (centres unmarked) [Compound 27, Cyclopropanecarboxylic acid [2-(4-fluoro-2-methyl-1,6-dihydro-2H-3-oxa-6-aza-as-indacen-8-yl)-ethyl]-amide], the activation at 0.001 µM in series [1] (1 nM compound) was found to be 33.8%. Also, the activation at 0.1 µM in series [1] (100 nM compound) worked out at 91.1%.

Take `CC1Cc2c(c(F)cc3[nH]cc(CCNC(=O)C(F)(F)F)c23)O1` (centres unmarked) [Compound 28, 2,2,2-Trifluoro-N-[2-(4-fluoro-2-methyl-1,6-dihydro-2H-3-oxa-6-aza-as-indacen-8-yl)-ethyl]-acetamide]: in series [1] (1 nM compound), the activation at 0.001 µM came out at 36.1%. Also, in series [1] (100 nM compound), the activation at 0.1 µM was 97.2%.

In the case of `COC(=O)NCCc1c[nH]c2cc(F)c3c(c12)CC(C)O3` (centres unmarked) [Compound 29, [2-(4-Fluoro-2-methyl-1,6-dihydro-2H-3-oxa-6-aza-as-indacen-8-yl)-ethyl]-carbamic acid methyl ester], the activation at 0.001 µM in series [1] (1 nM compound) amounted to 17.4%. Also, the activation at 0.1 µM in series [1] (100 nM compound) came to 77.3%.

On to `CCOC(=O)NCCc1c[nH]c2cc(F)c3c(c12)CC(C)O3` (centres unmarked) [Compound 30, [2-(4-Fluoro-2-methyl-1,6-dihydro-2H-3-oxa-6-aza-as-indacen-8-yl)-ethyl]-carbamic acid ethyl ester], for which the activation at 0.001 µM in series [1] (1 nM compound) was 7.1%. Also, in series [1] (100 nM compound), the activation at 0.1 µM is 68.1%.

As to `CC(C)CC(=O)NCCc1c[nH]c2cc(F)c3c(c12)CC(C)O3` (centres unmarked) [Compound 31, N-[2-(4-Fluoro-2-methyl-1,6-dihydro-2H-3-oxa-6-aza-as-indacen-8-yl)-ethyl]-3-methyl-butyramide], the activation at 0.001 µM in series [1] (1 nM compound) was 22.3%. Further, the activation at 0.1 µM in series [1] (100 nM compound) was found to be 90.4%.

For `CC1Cc2c(c(F)cc3[nH]cc(CCNC(=O)C(C)F)c23)O1` (centres unmarked) [Compound 32, 2-Fluoro-N-[2-(4-fluoro-2-methyl-1,6-dihydro-2H-3-oxa-6-aza-as-indacen-8-yl)-ethyl]-propionamide], the activation at 0.001 µM in series [1] (1 nM compound) stood at 38.6%. In series [1] (100 nM compound), the activation at 0.1 µM was 93.1%.

Turning to `CCNC(=O)NCCc1c[nH]c2cc(F)c3c(c12)CC(C)O3` (centres unmarked) [Compound 33, 1-Ethyl-3-[2-(4-fluoro-2-methyl-1,6-dihydro-2H-3-oxa-6-aza-as-indacen-8-yl)-ethyl]-urea], the activation at 0.001 µM in series [1] (1 nM compound) is 26.6%. Further, the activation at 0.1 µM in series [1] (100 nM compound) stood at 87.5%.

In the case of `CC1Cc2c(c(F)cc3[nH]cc(C(C)CNC(=O)C(C)C)c23)O1` (centres unmarked) [Compound 34, N-[2-(4-Fluoro-2-methyl-1,6-dihydro-2H-3-oxa-6-aza-as-indacen-8-yl)-propyl]-isobutyramide], the activation at 0.001 µM in series [1] (1 nM compound) stood at 18.4%. Besides, the activation at 0.1 µM in series [1] (100 nM compound) was determined as 95.8%.

With `CC1Cc2c(c(F)cc3[nH]cc(C(C)CNC(=O)C4CC4)c23)O1` (centres unmarked) [Compound 35, Cyclopropanecarboxylic acid [2-(4-fluoro-2-methyl-1,6-dihydro-2H-3-oxa-6-aza-as-indacen-8-yl)-propyl]-amide], the activation at 0.001 µM in series [1] (1 nM compound) was 30.5%. Further, the activation at 0.1 µM in series [1] (100 nM compound) is 94%.

For `CC(C)CC(=O)NCC(C)c1c[nH]c2cc(F)c3c(c12)CC(C)O3` (centres unmarked) [Compound 36, N-[2-(4-Fluoro-2-methyl-1,6-dihydro-2H-3-oxa-6-aza-as-indacen-8-yl)-propyl]-3-methyl-butyramide], the activation at 0.001 µM in series [1] (1 nM compound) was 20.9%. In series [1] (100 nM compound), the activation at 0.1 µM came out at 89.7%.

Consider `CC1Cc2c(c(F)cc3[nH]cc(C(C)CNC(=O)C(C)(C)C)c23)O1` (centres unmarked) [Compound 37, N-[2-(4-Fluoro-2-methyl-1,6-dihydro-2H-3-oxa-6-aza-as-indacen-8-yl)-propyl]-2,2-dimethyl-propionamide], for which the activation at 0.001 µM in series [1] (1 nM compound) is 6.6%. The activation at 0.1 µM in series [1] (100 nM compound) is 52.8%.

Consider `CC1Cc2c(c(F)cc3[nH]cc(C(C)CNC(=O)C(F)(F)F)c23)O1` (centres unmarked) [Compound 38, 2,2,2-Trifluoro-N-[2-(4-fluoro-2-methyl-1,6-dihydro-2H-3-oxa-6-aza-as-indacen-8-yl)-propyl]-acetamide], for which the activation at 0.001 µM in series [1] (1 nM compound) came out at 36.9%. Also, the activation at 0.1 µM in series [1] (100 nM compound) was 101%.

Consider `CCCCC(=O)NCC(C)c1c[nH]c2cc(F)c3c(c12)CC(C)O3` (centres unmarked) [Compound 39, Pentanoic acid [2-(4-fluoro-2-methyl-1,6-dihydro-2H-3-oxa-6-aza-as-indacen-8-yl)-propyl]-amide], for which, in series [1] (1 nM compound), the activation at 0.001 µM worked out at 24.6%. The activation at 0.1 µM in series [1] (100 nM compound) is 91.4%.

For the molecule `COC(=O)NCC(C)c1c[nH]c2cc(F)c3c(c12)CC(C)O3` (centres unmarked) [Compound 40, [2-(4-Fluoro-2-methyl-1,6-dihydro-2H-3-oxa-6-aza-as-indacen-8-yl)-propyl]-carbamic acid methyl ester], in series [1] (1 nM compound), the activation at 0.001 µM amounted to 24%. Besides, in series [1] (100 nM compound), the activation at 0.1 µM amounted to 95.2%.

Turning to `CCOC(=O)NCC(C)c1c[nH]c2cc(F)c3c(c12)CC(C)O3` (centres unmarked) [Compound 41, [2-(4-Fluoro-2-methyl-1,6-dihydro-2H-3-oxa-6-aza-as-indacen-8-yl)-propyl]-carbamic acid ethyl ester], the activation at 0.001 µM in series [1] (1 nM compound) is 13.1%. For the same molecule, in series [1] (100 nM compound), the activation at 0.1 µM was 78.9%.

With `CCNC(=O)NCC(C)c1c[nH]c2cc(F)c3c(c12)CC(C)O3` (centres unmarked) [Compound 42, 1-Ethyl-3-[2-(4-fluoro-2-methyl-1,6-dihydro-2H-3-oxa-6-aza-as-indacen-8-yl)-propyl]-urea], in series [1] (1 nM compound), the activation at 0.001 µM worked out at 19.7%. The activation at 0.1 µM in series [1] (100 nM compound) was determined as 87.8%.

For the molecule `CC1Cc2c(c(F)cc3[nH]cc(C(C)CNC(=O)C(C)F)c23)O1` (centres unmarked) [Compound 43, 2-Fluoro-N-[2-(4-fluoro-2-methyl-1,6-dihydro-2H-3-oxa-6-aza-as-indacen-8-yl)-propyl]-propionamide], the activation at 0.001 µM in series [1] (1 nM compound) is 30.6%. Besides, the activation at 0.1 µM in series [1] (100 nM compound) stood at 92.8%.

Regarding `COc1ccc2[nH]cc(CCNC(C)=O)c2c1` [Melatonin, reference compound], the half-life entry in series [2] is listed as “minutes”. The “Agonism percentages of MT1, 1 nM” value in series [1] (1 nM compound) is listed as 48.0%. Further, in series [1] (100 nM compound), the “Agonism percentages of MT1, 100 nM” value is listed as 102.6%.

Regarding `CCC(=O)NCC[C@@H]1CCc2ccc3c(c21)CCO3` [Ramelteon, N-[2-[(8S)-1,6,7,8-tetrahydro-2H-indeno[5,4-b]furan-8-yl)ethyl]propionamide, reference compound], the activation at 0.001 µM in series [1] (1 nM compound) was 47.4%. The activation at 0.1 µM in series [1] (100 nM compound) turned out to be 118%.

These data come from patent US8227501B2, “1,6-dihydro-2H-3-oxa-6-aza-as-indacene compounds” (Ferrer Internacional, S.A., priority 2008, dated 2012).
